We go through three compounds from paper PMC5144158 (Chemical research in toxicology, 2016).

The target in one series is T1, hCAR1 (Homo sapiens, UniProt Q14994).
T1 sequence (Q14994 1-348 isoform Q14994-2): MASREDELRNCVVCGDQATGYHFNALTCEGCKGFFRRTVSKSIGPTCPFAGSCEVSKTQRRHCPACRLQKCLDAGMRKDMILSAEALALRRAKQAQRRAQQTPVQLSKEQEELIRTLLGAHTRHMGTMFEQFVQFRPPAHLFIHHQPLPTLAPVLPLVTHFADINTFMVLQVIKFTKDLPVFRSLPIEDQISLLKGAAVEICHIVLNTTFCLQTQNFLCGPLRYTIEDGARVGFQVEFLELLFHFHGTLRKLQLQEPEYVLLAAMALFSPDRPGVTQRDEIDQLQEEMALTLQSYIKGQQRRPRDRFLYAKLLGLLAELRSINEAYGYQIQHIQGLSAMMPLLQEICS
The series is described as follows: Transactivation luciferase reporter assay in COS-1 cells, CMV2-CAR1. The class given is cell-based. To be noted: COS-1, 2B6-XREM-PBREM reporter, ANDRO 10 μM, 24 h, Figure 2.

Series [1] concerns the target T2, hPXR (Homo sapiens, UniProt O75469).
T2 sequence (O75469 1-434): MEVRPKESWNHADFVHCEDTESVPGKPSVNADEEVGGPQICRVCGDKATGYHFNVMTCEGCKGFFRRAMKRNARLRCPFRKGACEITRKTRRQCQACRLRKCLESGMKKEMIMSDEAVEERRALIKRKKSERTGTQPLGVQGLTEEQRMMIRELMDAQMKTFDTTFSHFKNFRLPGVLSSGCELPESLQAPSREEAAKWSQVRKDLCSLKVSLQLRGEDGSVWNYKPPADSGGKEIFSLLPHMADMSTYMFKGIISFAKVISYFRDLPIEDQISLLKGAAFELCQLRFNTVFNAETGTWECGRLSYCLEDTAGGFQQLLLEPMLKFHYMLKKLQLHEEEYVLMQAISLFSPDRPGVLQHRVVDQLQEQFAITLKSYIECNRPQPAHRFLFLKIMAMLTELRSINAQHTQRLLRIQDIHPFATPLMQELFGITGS
T2 sequence (P19793 1-462 partner): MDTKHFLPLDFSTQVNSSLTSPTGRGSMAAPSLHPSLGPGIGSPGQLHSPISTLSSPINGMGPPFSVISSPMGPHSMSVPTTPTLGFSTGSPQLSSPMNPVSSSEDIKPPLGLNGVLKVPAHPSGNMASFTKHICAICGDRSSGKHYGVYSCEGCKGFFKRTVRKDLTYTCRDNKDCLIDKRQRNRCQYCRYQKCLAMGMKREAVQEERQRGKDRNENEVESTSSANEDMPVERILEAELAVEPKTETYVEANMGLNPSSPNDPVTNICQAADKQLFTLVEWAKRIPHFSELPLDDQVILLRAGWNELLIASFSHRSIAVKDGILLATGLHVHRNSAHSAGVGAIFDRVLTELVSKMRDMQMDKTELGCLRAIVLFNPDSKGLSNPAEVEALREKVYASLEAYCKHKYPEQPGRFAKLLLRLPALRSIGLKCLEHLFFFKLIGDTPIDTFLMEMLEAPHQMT
In words: Transactivation luciferase reporter assay in COS-1 cells, CMV2-PXR. The following applies: for activation of hPXR (screen): COS-1, 2B6-XREM-PBREM reporter, Figure 2.

Series [2] concerns the target T3, hCAR2 (Homo sapiens, UniProt Q14994).
T3 sequence (Q14994 1-352): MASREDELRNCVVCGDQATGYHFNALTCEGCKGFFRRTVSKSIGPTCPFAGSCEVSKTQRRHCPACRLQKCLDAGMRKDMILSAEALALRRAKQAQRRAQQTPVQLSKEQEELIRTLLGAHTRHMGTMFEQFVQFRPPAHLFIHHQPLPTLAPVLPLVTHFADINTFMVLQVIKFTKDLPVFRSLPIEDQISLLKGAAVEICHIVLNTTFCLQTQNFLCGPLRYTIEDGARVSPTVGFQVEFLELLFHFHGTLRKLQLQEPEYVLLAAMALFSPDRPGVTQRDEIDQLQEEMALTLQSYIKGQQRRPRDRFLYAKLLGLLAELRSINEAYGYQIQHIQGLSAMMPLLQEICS
T3 sequence (P19793 1-462 partner): T2 sequence (P19793 1-462 partner)
In words: Transactivation luciferase reporter assay in COS-1 cells, CMV2-CAR2. The class given is cell-based. To be noted: for activation of hCAR2 (screen): COS-1, 2B6-XREM-PBREM reporter, Figure 2. Background: Reporter assays use an easily measured gene product as a stand-in for the process of interest.

Another series has as its system Wild-type mice. To be noted: PPARα knockout mice not protected, ref [59]; cited from earlier work.
In series [3] the test system is rodent PPAR and CAR target genes. The following applies: in vivo rodent studies, ref [29],[30]; cited from earlier work.
The subject of another series is female rodents. The following applies: ref [8]; cited from earlier work.
Series [4] relates to hPPARα, hPPARβ/∂, and hPPARγ. In words: PPRE reporter transactivation assays, statements on the hPPARs collectively. The class given is cell-based, human.
For the next series, the target named is T4, hCAR3 (Homo sapiens, UniProt Q14994, DEL233-236).
T4 sequence (Q14994 with tags, fused parts or gaps isoform Q14994-8 DEL233-236): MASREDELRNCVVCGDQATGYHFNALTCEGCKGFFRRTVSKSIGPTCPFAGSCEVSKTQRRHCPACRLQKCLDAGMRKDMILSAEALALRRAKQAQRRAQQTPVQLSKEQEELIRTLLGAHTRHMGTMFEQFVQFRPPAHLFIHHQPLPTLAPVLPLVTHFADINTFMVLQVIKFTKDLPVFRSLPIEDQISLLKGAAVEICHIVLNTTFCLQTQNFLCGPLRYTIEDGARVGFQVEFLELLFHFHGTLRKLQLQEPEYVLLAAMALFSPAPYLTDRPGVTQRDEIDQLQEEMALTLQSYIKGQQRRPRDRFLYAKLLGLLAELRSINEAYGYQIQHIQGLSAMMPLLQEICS
T4 sequence (P19793 1-462 partner): T2 sequence (P19793 1-462 partner)
In words: Transactivation luciferase reporter assay in COS-1 cells, CMV2-CAR3. The class given is cell-based. To be noted: COS-1, 2B6-XREM-PBREM reporter, 24 h, Figure 2.

The subject of the next series is male rodents. To be noted: varying treatment modalities, ref [5]–[7]; cited from earlier work.
Another series relates to CYP2B6. The series is described as follows: Primary human hepatocyte mRNA expression. To be noted: donor HH3, 30 μM, 24 h.
The target of series [5] is hPXR (Homo sapiens, UniProt O75469). In words: Mammalian two-hybrid assay, PXR LBD with SRC1, COS-1 cells. To be noted: COS-1, 24 h, Figure 5.
The target of the next series is T5, hPPARα (Homo sapiens, UniProt Q07869).
T5 sequence (Q07869 1-468): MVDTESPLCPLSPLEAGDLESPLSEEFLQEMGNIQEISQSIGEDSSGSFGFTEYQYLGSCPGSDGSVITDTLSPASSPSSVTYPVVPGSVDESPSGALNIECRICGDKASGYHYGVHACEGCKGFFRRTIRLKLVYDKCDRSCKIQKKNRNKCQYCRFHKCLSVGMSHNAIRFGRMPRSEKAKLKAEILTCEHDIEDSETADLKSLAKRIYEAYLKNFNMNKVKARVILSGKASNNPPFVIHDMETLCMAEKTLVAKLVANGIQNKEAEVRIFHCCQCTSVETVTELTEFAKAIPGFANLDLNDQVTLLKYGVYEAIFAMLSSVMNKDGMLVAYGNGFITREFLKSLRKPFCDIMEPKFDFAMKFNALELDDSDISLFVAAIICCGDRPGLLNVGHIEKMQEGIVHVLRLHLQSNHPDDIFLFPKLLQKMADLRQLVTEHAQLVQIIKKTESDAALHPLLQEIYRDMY
It is filed as cell-based. The following applies: COS-1, 24 h, Figure 4A.

Another series concerns 3T3L1 cells. To be noted: cited from earlier work.
In series [6] the target is hCAR2 (Homo sapiens, UniProt Q14994). In words: Mammalian two-hybrid assay, CAR LBD with SRC1, COS-1 cells. The class given is cell-based. To be noted: COS-1, 24 h, Figure 5.
In series [7] the test system is PPAR target genes (ACOX1, ANGPTL4, CPT2, PDK4). In words: Primary human hepatocyte mRNA expression. It is filed as cell-based. To be noted: primary human hepatocytes HH1–HH3, 24 h; for expression of PPAR target genes (overall): MEHP/MiNP 0.1–30 μM.
In a further series the test system is hCAR variants and hPXR. To be noted: transactivation assays, ref [47]; cited from earlier work.

Entries after “also recorded” stand apart in the source; their conditions may differ. Read-outs that look alike come from different tables or passages of the source.

Broadly, the EC50 is the midpoint of the concentration-response curve. For `CCCCC(CC)COC(=O)c1ccccc1C(=O)OCC(CC)CCCC` (stereo not shown) [DEHP, di(2-ethylhexyl) phthalate], on hCAR1, the “activation of hCAR1 (screen)” value is reported as “only minimal activity; also recorded: little or no activation of hCAR1”. Moreover, the EC50 on hPXR [1] is 3.5 µM; at hCAR2 [2] it was 0.1 µM. Also, the “activation of hPXR (screen)” value on hPXR [1] (24 h) was “activated hCAR2 and hPXR”. Further, on hPXR [1] (COS-1, 3A4-XREM reporter, 24 h, Figure 6/Table 4), the “max fold activation (hPXR)” value amounted to 13.7 fold. The “activation of hCAR2 (screen)” value on hCAR2 [2] (24 h) is “activated hCAR2 and hPXR”. Besides, at hCAR2 [2] (COS-1, CYP2B6-PBREM-XREM reporter, 24 h, Figure 6/Table 4), the “max fold activation (hCAR2)” value was determined as 7.1 fold. Further, in the series on Wild-type mice, the “phenotype on control diet or high fat diet” value is “exhibited a lean phenotype”. For the same compound, the “activation of rodent PPAR and CAR target genes” value in series [3] is “activation of rodent PPAR and CAR target genes”. For the same compound, the “estradiol levels and estrus cycle” value in the series with female rodents was “Decreased estradiol levels and estrus cycle disruptions”. Also, the “activation of the PPRE reporter by hPPARs (screen)” value in series [4] (COS-1, 24 h, Figure 3, effects only at highest test dose (100 μM)) was “neither DEHP nor DiNP activated the hPPARs”. Also, the “activation of the hPPARs (dose–response, higher doses)” value in series [4] (hPPARα and hPPARγ, higher doses than screening, data not shown) was “neither of the diphthalates activated the hPPARs”. For the same compound, the “activation of hCAR3 (screen)” value at hCAR3 is reported as “only minimal activity”. Besides, the “testosterone levels, reproductive organ weights, sperm counts, sperm motility” value in the series with male rodents is “decrease testosterone levels, reproductive organ weights, sperm counts, and sperm motility”.

With `CCCCC(CC)COC(=O)c1ccccc1C(=O)O` (stereo not shown) [MEHP, mono-(2-ethylhexyl)phthalate], at hCAR1, the “activation of hCAR1 (screen)” value is “slight activation of hCAR1 and hCAR3 at the highest doses; also recorded: little or no activation of hCAR1”. In addition, the “CYP2B6 mRNA expression” value in the series with CYP2B6 is listed as “increased expression of CYP2B6”. The “hPXR interaction with SRC1 / activation (mammalian two-hybrid)” value on hPXR [5] was “interacted with SRC1 in a dose-dependent manner”. Moreover, at hPXR [1] (24 h), the “activation of hPXR (screen)” value is recorded as “moderate activation of hPXR”. The EC50 at hPXR [1] (read-out: EC50 (hPXR), COS-1, 3A4-XREM reporter, 24 h, Figure 6/Table 4) came out at 27 µM. Also, the “activation of hCAR2 (screen)” value at hCAR2 [2] (24 h) is reported as “significant activation of hCAR2”. Further, the “rank order potency across receptors” value on hCAR2 [2] (transactivation dose–response, Figure 4B) was “hCAR2 > hPXR > hPPARγ ≥ PPARβ/∂”. The “activation of hPPARα (dose–response)” value on hPPARα was “very little activation of hPPARα”. Moreover, the “expression of PPARγ target genes involved in adipocyte differentiation” value with 3T3L1 cells (3T3L1 cells, ref [42]) is reported as “induced expression of PPARγ target genes”. The “cellular lipid and triglyceride content” value in the series on 3T3L1 cells (3T3L1 preadipocytes, ref [41],[42]) is “increased cellular lipid and triglyceride content”. Also, on hCAR3, the “activation of hCAR3 (screen)” value was “slight activation of hCAR1 and hCAR3 at the highest doses”. Moreover, on hCAR2 [6], the “hCAR interaction with SRC1 / activation (mammalian two-hybrid)” value is reported as “interacted with SRC1 in a dose-dependent manner”. In [7], the “expression of PPAR target genes (overall)” value is listed as “Neither MEHP nor MiNP induced expression of any PPAR target genes; also recorded: no activation of PPAR target genes”.

On to `Cc1c(C)c2c(c(C)c1O)CCC(C)(COc1ccc(CC3SC(=O)NC3=O)cc1)O2` (stereo not shown) [TG, troglitazone], for which, in the series on hCAR variants and hPXR, the “activation of hCAR variants and hPXR” value was “activates hCAR variants and hPXR”. In series [7] (50 μM WY14643, 30 μM TG), the “ANGPTL4 mRNA expression” value is “inducing only ANG and CPT in HH3”; the “CPT2 mRNA expression” value is “inducing only ANG and CPT in HH3”. Moreover, the “expression of PPAR target genes (overall)” value in series [7] is reported as “weak inducer of PPAR target genes”.
